Results as given in patent US9682960B2 (priority 2013, dated 2017).

Tests used:
[1] = biological target: Human Androgen Receptor (Homo sapiens (Human), UniProt P10275); experiment: Androgen receptor assay: [3H]R1881 displacement, cytosol of HEK-293 cells transfected with hAR (hydroxylapatite assay); type: binding; settings: relative binding affinity, R1881 = 100
[2] = test system: Shionogi mouse mammary carcinoma cells; experiment: In vitro androgenic/antiandrogenic activity: proliferation of Shionogi cells with or without DHT; type: cell-based; settings: Mus musculus, read-out: Shionogi Antiandrogenic Activity IC50, DHT (0.3 nM)-stimulated cell number
[3] = test system: castrated (CX) immature male rats; experiment: Systemic androgenic (agonistic) activity in orchidectomized (CX) immature male rats; type: in vivo, rat; settings: 0.1 mg/rat/po, 7 days; for CX Agonistic activity % Stimulation Bulbo: bulbocavernosus muscles weight; for CX Agonistic activity % Stimulation SV: seminal vesicles weight; for CX Agonistic activity % Stimulation Prostate: ventral prostate weight
Method: Immature male rats (Crl:CD(SD)Br) 22 to 24-day old weighting 60-80 g at start of treatment were obtained from Charles-River, Inc. (St-Constant, Quebec, Canada) and housed up to 5 per cage in plastic bins in a temperature (23±1° C.)- and light (12 h light/day, lights on at 7 h15)-controlled environment. The rats were fed rodent chow and tap water ad libitum. […] The day following their arrival, the designed animals were orchidectomized (CX) under Isoflurane anesthesia (Study Day 1) via the scrotal route and were then randomly assigned to groups of 3 to 5 animals. At the time of orchidectomy, one silastic implant of dihydrotestosterone (DHT; 1 cm length of pure DHT in silastic tubing having inner and outer diameter of 0.078 and 0.125 inches, respectively), was inserted subcutaneously in the dorsal area of animals assigned to the evaluation of antiandrogenic activity. In the case of intact animal experiments, the orchidectomy and the silastic implant installation are omitted.
Tested compounds were administered orally once daily for 7 days from Study Day 2 to Study Day 8 at doses generally ranging from 0.1 and 0.5 mg/animal. Compounds were either solubilized in dimethylsulfoxide (DMSO, 10% final concentration) and were administered as a solution/suspension in 0.9% NaCl-1% gelatin or were administered as suspensions in 0.4% aqueous methylcellulose. Animals of the control groups received the corresponding vehicle alone during the 7-day period. Some animals were treated with the antiandrogen Flutamide or Casodex as reference. The animals under isoflurane anesthesia were killed by cervical dislocation on day 9 of the study, approximately 24 h after the last dosing. The ventral prostate, seminal vesicles and bulbocavernosus muscles were rapidly dissected and weighed.
For calculations with intact animals, control DHT is replaced by control intact and the % stimulation is subtracted by 100%. W is the weight of the prostate, seminal vesicles or bulbocavernosus muscles. Discussion

Chain of Human Androgen Receptor (P10275 whole entry): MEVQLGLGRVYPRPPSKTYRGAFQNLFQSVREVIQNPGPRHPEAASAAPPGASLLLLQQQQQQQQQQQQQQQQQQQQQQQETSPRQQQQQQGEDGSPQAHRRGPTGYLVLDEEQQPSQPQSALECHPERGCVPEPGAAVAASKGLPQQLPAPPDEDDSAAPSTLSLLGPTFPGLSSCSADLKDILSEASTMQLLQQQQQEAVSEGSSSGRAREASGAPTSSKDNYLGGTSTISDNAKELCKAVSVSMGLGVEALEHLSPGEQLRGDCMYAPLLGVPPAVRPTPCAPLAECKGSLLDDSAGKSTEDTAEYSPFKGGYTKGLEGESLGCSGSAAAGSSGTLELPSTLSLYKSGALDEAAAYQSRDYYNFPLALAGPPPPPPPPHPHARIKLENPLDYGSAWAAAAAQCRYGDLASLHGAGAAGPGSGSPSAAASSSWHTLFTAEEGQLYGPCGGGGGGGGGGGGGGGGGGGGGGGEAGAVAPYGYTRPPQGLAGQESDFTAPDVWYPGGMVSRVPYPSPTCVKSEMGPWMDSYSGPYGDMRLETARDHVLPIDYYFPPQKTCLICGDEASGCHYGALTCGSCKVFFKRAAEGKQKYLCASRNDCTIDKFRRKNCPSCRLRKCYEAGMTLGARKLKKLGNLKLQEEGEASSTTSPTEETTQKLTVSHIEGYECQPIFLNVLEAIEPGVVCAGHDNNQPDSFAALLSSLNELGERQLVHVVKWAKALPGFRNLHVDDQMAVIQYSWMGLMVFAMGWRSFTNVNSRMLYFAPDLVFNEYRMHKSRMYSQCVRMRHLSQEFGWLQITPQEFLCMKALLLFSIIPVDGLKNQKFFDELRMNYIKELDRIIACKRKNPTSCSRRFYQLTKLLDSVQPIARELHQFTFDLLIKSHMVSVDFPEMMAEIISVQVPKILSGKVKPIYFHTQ

Structure (SMILES) | Human Androgen Receptor Binding RBA (%) R1881 = 100 ([1]; […]) | IC50 [2] | CX Agonistic activity % Stimulation Bulbo [3] | CX Agonistic activity % Stimulation SV [3] | CX Agonistic activity % Stimulation Prostate [3] | Human Androgen Receptor Binding RBA (%) R1881 = 100 ([1]; transfected cells)
Cc1c(N2C(=O)C(C)(C)N(CCCOc3ccc(-c4cccnc4)cc3)C2=S)ccc(C#N)c1Cl [EM-8656] | 477 ± 16 (n = 2) % | > 100 nM | 73% | 24% | 38% | 
Cc1c(N2C(=O)C(C)(C)N(CCCOc3ccc(-c4ccncc4)cc3)C2=S)ccc(C#N)c1Cl [EM-8664] | 664% | > 100 nM | 177% | 66% | 62% | 
Cc1c(N2C(=O)C(C)(C)N(CCCOc3ccc(-c4cncnc4)cc3)C2=S)ccc(C#N)c1Cl [EM-8685] | 144% | > 100 nM | 136% | 20% | 41% | 
Cc1c(N2C(=O)C(C)(C)N(CCCOc3ccc(-c4cccnc4)cc3F)C2=S)ccc(C#N)c1Cl [EM-8714] | 355% | 97 nM | 78% | 18% | 45% | 
Cc1c(N2C(=O)C(C)(C)N(CCCOc3ccc(-c4ccccn4)cc3F)C2=S)ccc(C#N)c1Cl [EM-8715] | 155% | 57.3 nM | 58% | 11% | 35% | 
Cc1c(N2C(=O)C(C)(C)N(CCCOc3ccc(-c4ccncc4)cc3F)C2=S)ccc(C#N)c1Cl [EM-8723] | 408% | 120 nM | 129% | 56% | 60% | 
CC1(C)C(=O)N(c2ccc(C#N)c(C(F)(F)F)c2)C(=S)N1CCCOc1ccc(-c2ccncc2)nc1 [EM-9092] |  | 11.2 nM |  |  |  | 72%
CC1(C)C(=O)N(c2ccc(C#N)c(C(F)(F)F)c2)C(=O)N1CCCOc1ccc(-c2ccncc2)nc1 [EM-9111] | 1.0 ± 0.0 (n = 2) % | 19 nM |  |  |  | 
CC1(C)C(=O)N(c2ccc(C#N)c(C(F)(F)F)c2)C(=O)N1CCCOc1ccc(-c2ccncc2)cn1 [EM-9114] | 7.9 ± 4.1 (n = 3) % | 19.2 ± 0.3 nM |  |  |  | 
CC1(C)C(=O)N(c2ccc(C#N)c(Cl)c2)C(=O)N1CCCOc1ccc(-c2ccncc2)c(F)c1 [EM-9115] | 12.5 ± 2.3 (n = 6) % | 18 ± 4 nM |  |  |  | 
CC1(C)C(=O)N(c2ccc(C#N)c(Cl)c2)C(=O)N1CCCOc1ccc(-c2cc[n+]([O-])cc2)c(F)c1 [EM-9117] | 2.5 ± 0.5 (n = 5) % | 31 ± 10 nM |  |  |  | 
CC1(C)C(=O)N(c2ccc(C#N)c(Cl)c2)C(=O)N1CCCOc1ccc(-c2cc[n+]([O-])cc2)cc1 [EM-9118] | 2.2 ± 0.4 (n = 6) % | 15 ± 3 nM |  |  |  | 
CC1(C)C(=O)N(c2ccc(C#N)c(Cl)c2)C(=S)N1CCCOc1ccc(-c2cc[n+]([O-])cc2)c(F)c1 [EM-9119] | 122% | 12.1 ± 0.5 nM |  |  |  | 
CC1(C)C(=O)N(c2ccc(C#N)c(Cl)c2)C(=S)N1CCCOc1ccc(-c2cc[n+]([O-])cc2)cc1 [EM-9120] | 106% | 9.2 ± 0.8 nM |  |  |  | 
CC1(C)C(=O)N(c2ccc(C#N)c(C(F)(F)F)c2)CC(=O)N1CCCOc1ccc(-c2ccncc2)cc1 [EM-9126] | <0.1% | 173 nM |  |  |  | 
CC1(C)C(=O)N(c2ccc(C#N)c(F)c2)C(=O)N1CCCOc1ccc(-c2cc[n+]([O-])cc2)cc1 [EM-9176] |  | > 100 nM |  |  |  | ~0.1%
